Patent EP0230052B1, “Immunoamplifiers and related Compositions” (Gottlieb, Arthur A., priority 1985, dated 1987)

Legend:
[1] = tested on: IL-2 production in response to mitogen PHA; assay: IL-2 in vitro test (PHA-stimulated IL-2 production); type: cell-based, human; conditions: optimal concentration of TGG
Description: The production of IL-2 in response to mitogen was characterized by the existence of the same optimal concentration phenomenon (paradoxical effect) described above.

[2] = tested on: DH skin reaction to tetanus toxoid; set-up: species or system human; conditions: in vivo
DH response = assay: Modulator assay methods of the '379 patent (amplifier activity, DH test); type: in vivo, human; conditions: other moieties in effluents of Example 6B process

Tyrosylglycylglycine [TGG]
ratio of PHA-stimulated IL-2 production with TGG added to without TGG ([1]; subject #1): 1.45 | ratio of PHA-stimulated IL-2 production with TGG added to without TGG ([1]; subject #2): 2.55 | optimum concentration for maximum immune effect [2]: ~3 fM

Gly-Gly
immunological activity as assayed by DH test (DH response): None of these other moieties appeared to possess immunological activity

Ser-Phe
immunological activity as assayed by DH test (DH response): None of these other moieties appeared to possess immunological activity
